Assay: FIH Study Part A dose escalation: adverse events
Excerpt: TEAEs and TRAEs from the clinical study database were coded to system organ class and preferred term using MedDRA version 22.0 and SAEs from the centralized safety database were coded using MedDRA version 25.0. The severity of adverse events was graded according to the NCI CTCAE version 5.0.

## O=C1CC[C@H](N2Cc3cc(N4CCN(CC5CCN(c6ccc([C@@H]7c8ccc(O)cc8CC[C@@H]7c7ccccc7)cc6)CC5)CC4)ccc3C2=O)C(=O)N1 [Compound A, (S)-3-(5-(4-((1-(4-((1R,2S)-6-hydroxy-2-phenyl-1,2,3,4-tetrahydronaphthalen-1-yl)phenyl)piperidin-4-yl)methyl)piperazin-1-yl)-1-oxoisoindolin-2-yl)piperidine-2,6-dione]
200 mg (N=8)
  TRAE Nausea: 2 n
  TRAE Vomiting: 1 n
360 mg (N=15)
  TEAE Alanine aminotransferase increased: 1 n
  TEAE Arthralgia: 2 n
  TEAE Aspartate aminotransferase increased: 0 n
  TEAE Back pain: 2 n
  TEAE Constipation: 5 n
  TEAE Decreased appetite: 4 n
  TEAE Diarrhea: 4 n
  TEAE Dizziness: 2 n
  TEAE Fatigue: 4 n
  TEAE Headache: 4 n
  TEAE Hot flush: 2 n
  TEAE Hyperglycemia: 2 n
  TEAE Insomnia: 1 n
  TEAE Nausea: 4 n
  TEAE Pain in extremity: 1 n
  TEAE Vomiting: 5 n
  TRAE Arthralgia: 0 n
  TRAE Constipation: 3 n
  TRAE Decreased appetite: 2 n
  TRAE Fatigue: 3 n
  TRAE Hot flush: 1 n
  TRAE Nausea: 3 n
  TRAE Vomiting: 2 n
500 mg (N=22)
  TEAE Alanine aminotransferase increased: 2 n
  TEAE Arthralgia: 4 n
  TEAE Aspartate aminotransferase increased: 1 n
  TEAE Back pain: 6 n
  TEAE Constipation: 10 n
  TEAE Decreased appetite: 2 n
  TEAE Diarrhea: 3 n
  TEAE Dizziness: 2 n
  TEAE Fatigue: 14 n
  TEAE Headache: 3 n
  TEAE Hot flush: 5 n
  TEAE Hyperglycemia: 5 n
  TEAE Insomnia: 4 n
  TEAE Nausea: 9 n
  TEAE Pain in extremity: 5 n
  TEAE Vomiting: 4 n
  TRAE Arthralgia: 2 n
  TRAE Constipation: 3 n
  TRAE Decreased appetite: 1 n
  TRAE Fatigue: 9 n
  TRAE Hot flush: 5 n
  TRAE Nausea: 7 n
  TRAE Vomiting: 3 n
700 mg (N=4)
  TEAE Alanine aminotransferase increased: 0 n
  TEAE Arthralgia: 0 n
  TEAE Aspartate aminotransferase increased: 2 n
  TEAE Back pain: 2 n
  TEAE Constipation: 1 n
  TEAE Decreased appetite: 1 n
  TEAE Diarrhea: 1 n
  TEAE Dizziness: 2 n
  TEAE Fatigue: 2 n
  TEAE Headache: 1 n
  TEAE Hot flush: 0 n
  TEAE Hyperglycemia: 1 n
  TEAE Insomnia: 1 n
  TEAE Nausea: 2 n
  TEAE Pain in extremity: 0 n
  TEAE Vomiting: 1 n
  TRAE Arthralgia: 0 n
  TRAE Constipation: 0 n
  TRAE Decreased appetite: 0 n
  TRAE Fatigue: 2 n
  TRAE Hot flush: 0 n
  TRAE Nausea: 1 n
  TRAE Vomiting: 0 n
6 Jun 2023
  Grade 4 or Grade 5 TRAEs: no Grade 4 or Grade 5 TRAEs
6 Jun 2023, N=83
  Grade 1 TEAEs: 34.9%
  Grade 1 TRAEs: 41.0%
  Grade 2 TEAEs: 41.0%
  Grade 2 TRAEs: 24.1%
  Grade 3 TEAEs: 16.9%
  Grade 3 TRAE electrocardiogram QT prolonged: 2 patients
  Grade 4 TEAEs: 2.4%
  Grade 5 TEAE: 1.2%
  TEAE of Grade ≥3: 20.5%
  patients with Grade 3 TRAEs: 7.2%
  patients with at least 1 TEAE: 96.4%
  patients with at least 1 TRAE: 72.3%
6 Jun 2023, N=83, 11
  SAEs: 13.3%
33 of 83 participants
  deaths: 39.8%
Patient 1, 30 mg QD, onset day 30, Not related
  SAE Procedural pain, Grade: 3
Patient 2, 250 mg BID, onset day 59, Not related
  SAE Humerus fracture, Grade: 3
Patient 3, 360 mg QD, onset day 42, Possibly related, SUSAR
  SAE Embolism venous, Grade: 3
Patient 4, 200 mg QD
  SAE Colitis, Grade: 1
  SAE Neutrophil count decreased, Grade: 4
Patient 4, 200 mg QD, onset day 79, Not related
  SAE Stomatitis, Grade: 3
Patient 5, 250 mg BID, onset day 10
  SAE Malignant pleural effusion, Grade: 3
Patient 5, 250 mg BID, onset day 26, Not related
  SAE Cardiac arrest, Grade: 5
Patient 6, 360 mg QD, onset day 54, Unlikely related
  SAE Embolism, Grade: 3
Patient 7, 500 mg QD, onset day 49, Not related
  SAE Hypoglycemia, Grade: 4
Patient 8, 100 mg QD, onset day 118, Not related
  SAE Acute kidney injury, Grade: 3
Total (N=78)
  TEAE Alanine aminotransferase increased: 8 n
  TEAE Arthralgia: 14 n
  TEAE Aspartate aminotransferase increased: 11 n
  TEAE Back pain: 13 n
  TEAE Constipation: 24 n
  TEAE Decreased appetite: 12 n
  TEAE Diarrhea: 13 n
  TEAE Dizziness: 8 n
  TEAE Fatigue: 26 n
  TEAE Headache: 13 n
  TEAE Hot flush: 11 n
  TEAE Hyperglycemia: 10 n
  TEAE Insomnia: 9 n
  TEAE Nausea: 26 n
  TEAE Pain in extremity: 10 n
  TEAE Vomiting: 14 n
  TRAE Arthralgia: 8 n
  TRAE Constipation: 10 n
  TRAE Decreased appetite: 8 n
  TRAE Fatigue: 17 n
  TRAE Hot flush: 8 n
  TRAE Nausea: 20 n
  TRAE Vomiting: 8 n
cut-off 6 Jun 2022
  Grade 4 or Grade 5 TRAEs: no Grade 4 or Grade 5 TRAEs
  patients reporting SAEs: 8 of 78 patients
  total SAEs: 11 SAEs
cut-off 6 Jun 2022, N=78
  Grade 1 TEAEs: 34.6%
  Grade 1 TRAEs: 42.3%
  Grade 2 TEAEs: 39.7%
  Grade 2 TRAEs: 21.8%
  Grade 3 TEAEs: 11.5%
  Grade 3 hypertension: 2 patients
  Grade 4 TEAEs: 3.8%
  Grade 5 TEAE: 1.3%
  TEAE of Grade ≥3: 16.7%
  patients with Grade 3 TRAEs: 5.1%
  patients with at least 1 TEAE: 91.0%
  patients with at least 1 TRAE: 69.2%
Five of 83 patients
  TEAE leading to discontinuation: 6.0%
